Where two headings read alike, the source gives them in different places.
Experiments:
[1] = target: T1, purified catalytic domain of recombinant human TACE (rhTACEc) (Homo sapiens, UniProt P78536, N452Q/S266A); assay: TACE kinetic assay: cleavage of internally quenched peptide substrate TNF-FRET 2 (Ki); assay type: biochemical; conditions: TNF-FRET 2 substrate
T1 construct: 6xHis (C); made in house; host or cells: baculovirus/Hi5 insect cells

[2] = system: TNF-α production from human whole blood; assay: Inhibition of TNF-α production from human whole blood (hWBA), LPS stimulated, ELISA; assay type: cell-based; conditions: Homo sapiens, TNF-α by ELISA, read-out: hWBA (IC50)
[3] = human whole blood diluted 1:1, LPS stimulated
[4] = 3.5 h, human whole blood diluted 1:1, LPS stimulated, 3.5 h
[5] = LPS-stimulated human whole blood

T1 sequence (P78536 215-477 S266A/N452Q): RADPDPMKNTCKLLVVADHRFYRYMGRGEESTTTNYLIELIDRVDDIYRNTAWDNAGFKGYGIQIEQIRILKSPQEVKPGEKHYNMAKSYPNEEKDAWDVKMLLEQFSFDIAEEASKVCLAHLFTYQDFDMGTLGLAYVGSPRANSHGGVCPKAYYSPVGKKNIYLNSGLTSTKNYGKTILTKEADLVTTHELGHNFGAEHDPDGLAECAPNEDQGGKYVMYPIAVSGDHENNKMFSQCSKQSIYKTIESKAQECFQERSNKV

Row | SMILES | Ki ([1]; read-out: Ki) | IC50 [2, 3] | IC50 [2, 4] | IC50 [2, 5] | Ki ([1]; Ki)
1 | COc1ccc2c(c1)C(=O)N(C[C@@]1(c3cc4nc(C(=O)NCCN(C)C)ccc4o3)NC(=O)NC1=O)C2 [Compound 2466] | 0.867 nM | 567 nM |  |  | 
2 | COc1ccc2c(c1)C(=O)N(C[C@@]1(c3cc4cc(C5(C)NC(=O)NC5=O)cc(C)c4o3)NC(=O)NC1=O)C2 (some centres unmarked) [Compound 2211] | 0.216 nM |  | 1550 nM |  | 
3 | COc1ccc2c(c1)C(=O)N(C[C@@]1(c3cc4cc(C(N)C(F)(F)F)ccc4o3)NC(=O)NC1=O)C2 (some centres unmarked) [Compound 311] | 0.594 nM |  |  | 784 nM | 
4 | COc1ccc2c(c1)C(=O)N(C[C@@]1(c3cc4nc(N5CCCNC5=O)ccc4o3)NC(=O)NC1=O)C2 [Compound 2134] | 0.467 nM |  | 115 nM |  | 
5 | COc1ccc2c(c1)C(=O)N(C[C@@]1(c3cc4[nH]c(=O)ccc4o3)NC(=O)NC1=O)C2 [Compound 1946] | 0.37 nM |  |  | 542 nM | 
6 | COc1ccc2c(c1)C(=O)N(C[C@@]1(c3ccc(C#N)cc3)NC(=O)NC1=O)C2 [Compound 2477] | 1.41 nM | 3480 nM |  |  | 
7 | COc1ccc2c(c1F)C(=O)N(C[C@@]1(c3cc4cc([C@]5(C)C(=O)NC(=O)N5C)c(F)cc4o3)NC(=O)NC1=O)C2 [Compound 1317] | 0.47 nM |  |  | 234 nM | 
8 | COc1ccc2c(c1F)C(=O)N(C[C@@]1(c3cc4c(Cl)nccc4o3)NC(=O)NC1=O)C2 [Compound 2216] | 0.41 nM |  | 313 nM |  | 
9 | COc1ccc2c(c1F)C(=O)N(C[C@@]1(c3cc4cc(-c5cc(=O)[nH]c(N)n5)ccc4o3)NC(=O)NC1=O)C2 [Compound 300] | 0.538 nM |  |  | 364 nM | 
10 | COc1ccc2c(c1)C(=O)N(C[C@@]1(c3cc4cc(-c5cn[nH]c5)ccc4o3)NC(=O)NC1=O)C2 [Compound 2201] | 0.345 nM |  | 294 nM |  | 
11 | COc1ccc2c(c1)C(=O)N(C[C@@]1(c3cc4nc(Nc5c(C)cnn5C)ccc4o3)NC(=O)NC1=O)C2 [Compound 2111] | 0.762 nM |  | 1130 nM |  | 
12 | Cc1ccc2c(c1)C(=O)N(C[C@@]1(c3cc4ncccc4o3)NC(=O)NC1=O)C2 [Compound 1740] |  |  |  | > 10000 nM | 2.91 nM
13 | COc1ccc2c(c1)C(=O)N(C[C@@]1(c3cc4cc(C(=O)NCCN(C)C)ccc4o3)NC(=O)NC1=O)C2 [Compound 2428] | 0.75 nM | 115 nM |  |  | 
14 | COc1ccc2c(c1F)C(=O)N(C[C@@]1(c3cc4nc(-c5ccc(N(C)C)nc5)ccc4o3)NC(=O)NC1=O)C2 [Compound 1726] | 1.49 nM |  |  | > 10000 nM | 
15 | COc1ccc2c(c1)C(=O)N(C[C@@]1(c3cc4ncc(C5=NCCN5)cc4o3)NC(=O)NC1=O)C2 [Compound 1942] |  |  |  | 3880 nM | 2.09 nM
16 | COc1ccc2c(c1)C(=O)N(C[C@@]1(c3cc4nc(-c5cc6ccccc6[nH]5)ccc4o3)NC(=O)NC1=O)C2 [Compound 2149] | 0.286 nM |  | 534 nM |  | 
17 | CCN1CCN(c2ccc3oc([C@]4(CN5Cc6ccc(OC)c(F)c6C5=O)NC(=O)NC4=O)cc3n2)C[C@@H]1C [Compound 1294] | 1.1 nM |  | 275 nM |  | 

Row | SMILES | Ki ([1]; read-out: Ki) | IC50 [2, 3] | IC50 [2, 4] | IC50 [2, 5] | Ki ([1]; Ki)
18 | COc1ccc2c(c1)C(=O)N(C[C@@]1(c3cc4c(C)nc(O)c(C(=O)O)c4o3)NC(=O)NC1=O)C2 [Compound 2436] |  | 2390 nM |  |  | 2.41 nM
19 | COc1ccc2c(c1F)C(=O)N(C[C@@]1(c3cc4cncnc4o3)NC(=O)NC1=O)C2 [Compound 303] | 1.57 nM |  |  | 198 nM | 
20 | COc1ccc2c(c1)C(=O)N(C[C@@]1(c3cc4nc(-c5ccc(OC)nc5)ccc4o3)NC(=O)NC1=O)C2 [Compound 1518] | 0.9 nM |  |  | 1510 nM | 
21 | COc1ccc2c(c1F)C(=O)N(C[C@@]1(c3cc4nc(-c5cn[nH]c5)ccc4o3)NC(=O)NC1=O)C2 [Compound 2121] | 0.263 nM |  | 102 nM |  | 
22 | CNC1CCN(c2ccc3oc([C@]4(CN5Cc6ccc(OC)cc6C5=O)NC(=O)NC4=O)cc3n2)CC1 [Compound 2139] | 1.44 nM |  | 388 nM |  | 
23 | COc1ccc2c(c1)C(=O)N(C[C@@]1(c3cc4ccc(C(=O)N5CCN(C)CC5)cc4o3)NC(=O)NC1=O)C2 [Compound 2423] | 1.01 nM | 1090 nM |  |  | 
24 | CCOC(=O)NCc1ccc2oc([C@]3(CN4Cc5ccc(OC)cc5C4=O)NC(=O)NC3=O)cc2c1 [Compound 2484] |  | 1690 nM |  |  | 0.49 nM
25 | COc1ccc2c(c1)C(=O)N(C[C@@]1(c3cc4cc(CN(C)C)ccc4o3)NC(=O)NC1=O)C2 [Compound 2176] | 0.267 nM |  | 1040 nM |  | 
26 | COc1ccc2c(c1)C(=O)N(C[C@@]1(c3cc4c(N5CCNC(=O)C5)nccc4o3)NC(=O)NC1=O)C2 [Compound 2280] | 1.1 nM | 340 nM |  |  | 
27 | COc1ccc2c(c1)C(=O)N(C[C@@]1(c3cn4c5c(sc4n3)CN(C)CC5)NC(=O)NC1=O)C2 [Compound 503] | 4.23 nM |  |  | 1830 nM | 
28 | O=C1NC(=O)[C@](CN2Cc3ccc(O)c(F)c3C2=O)(c2cc3ncccc3o2)N1 [Compound 1721] |  |  |  | > 10000 nM | 1.64 nM
29 | COc1ccc2c(c1)C(=O)N(C[C@@]1(c3cc4c(NCc5ccccc5)ccnc4o3)NC(=O)NC1=O)C2 [Compound 2248] |  |  | 233 nM |  | 1.61 nM
30 | COc1ccc2c(c1)C(=O)N(C[C@@]1(c3cc4ncc(CO)cc4o3)NC(=O)NC1=O)C2 [Compound 2320] | 0.586 nM | 609 nM |  |  | 
31 | COc1ccc2c(c1)C(=O)N(C[C@@]1(c3cc4c(o3)CCN(CC(N)=O)C4)NC(=O)NC1=O)C2 [Compound 2483] |  | 252 nM |  |  | 0.7 nM
32 | COc1ccc2c(c1)C(=O)N(C[C@@]1(c3cc4nc(-c5cnc(N(C)C)nc5)ccc4o3)NC(=O)NC1=O)C2 [Compound 2152] | 0.374 nM |  | 675 nM |  | 
33 | COc1ccc2c(c1)C(=O)N(C[C@@]1(c3cc4cc(-c5ccc(N(C)C)nc5)ccc4o3)NC(=O)NC1=O)C2 [Compound 1184] | 0.85 nM |  | 2710 nM |  | 

Continued, in another order:

Row | Ki ([1]; read-out: Ki) | IC50 [2, 3] | IC50 [2, 4] | IC50 [2, 5] | SMILES | Ki ([1]; Ki)
34 | 0.661 nM |  | 194 nM |  | COc1ccc2c(c1)C(=O)N(C[C@@]1(c3cc4nc(N5CCNCC5)ccc4o3)NC(=O)NC1=O)C2 [Compound 2126] | 
35 | 0.806 nM |  | 828 nM |  | COc1ccc2c(c1)C(=O)N(C[C@@]1(c3cc4nc(-c5ccc6nccn6c5)ccc4o3)NC(=O)NC1=O)C2 [Compound 2150] | 
36 | 0.75 nM |  | 161 nM |  | COc1ccc2c(c1)C(=O)N(C[C@@]1(c3cc4nc(N5CCC(OC)(OC)CC5)ccc4o3)NC(=O)NC1=O)C2 [Compound 2109] | 
37 | 0.306 nM |  | 193 nM |  | COc1ccc2c(c1)C(=O)N(C[C@@]1(c3cc4nc(N5CCNC(=O)C5)ccc4o3)NC(=O)NC1=O)C2 [Compound 2114] | 
38 | 1.32 nM | 485 nM |  |  | COc1ccc2c(c1)C(=O)N(C[C@@]1(c3cc4c(N5CCNC5=O)nccc4o3)NC(=O)NC1=O)C2 [Compound 2292] | 
39 | 2.5 nM |  |  | ≥ 100000 nM | COc1ccc2c(c1)C(=O)N(C[C@]1(C3=CC(c4ccccc4)N(C)O3)NC(=O)NC1=O)C2 (some centres unmarked) [Compound 1526] | 
40 | 0.435 nM |  | 221 nM |  | COc1ccc2c(c1)C(=O)N(C[C@@]1(c3cc4nc(N5CCNC5=O)ccc4o3)NC(=O)NC1=O)C2 [Compound 2127] | 
41 | 0.6 nM |  |  | 1290 nM | COc1ccc2c(c1)C(=O)N(C[C@@]1(c3cc4nc(-c5cnc(N6CCCC6)nc5)ccc4o3)NC(=O)NC1=O)C2 [Compound 1505] | 
42 | 0.721 nM | 696 nM |  |  | COc1ccc2c(c1)C(=O)N(C[C@@]1(c3cc4cnc(-c5c(C)noc5C)cc4o3)NC(=O)NC1=O)C2 [Compound 2288] | 
43 | 1.32 nM | 174 nM |  |  | CCOC(=O)c1c(O)nc(C)c2cc([C@]3(CN4Cc5ccc(OC)cc5C4=O)NC(=O)NC3=O)oc12 [Compound 2434] | 
44 | 2.17 nM |  |  | 189 nM | COc1ccc2c(c1)C(=O)N(C[C@@]1(c3cc4nc(NS(C)(=O)=O)ccc4o3)NC(=O)NC1=O)C2 [Compound 1937] | 
45 | 0.539 nM |  | 345 nM |  | COc1ccc2c(c1)C(=O)N(C[C@@]1(c3cc4cc(CN5CCNCC5)ccc4o3)NC(=O)NC1=O)C2 [Compound 2186] | 
46 | 1.08 nM |  | 509 nM |  | COc1ccc2c(c1)C(=O)N(C[C@@]1(c3cc4c[n+]([O-])ccc4o3)NC(=O)NC1=O)C2 [Compound 2259] | 
47 | 2.51 nM |  | 542 nM |  | COc1ccc2c(c1)C(=O)N(C[C@@]1(c3cc4cc(CC(N)=O)ccc4o3)NC(=O)NC1=O)C2 [Compound 2209] | 
48 | 0.972 nM |  | 2670 nM |  | COc1ccc2c(c1)C(=O)N(C[C@@]1(c3cc4cnc(N5CCCC5=O)cc4o3)NC(=O)NC1=O)C2 [Compound 2253] | 
49 | 1.32 nM |  |  | 4140 nM | COc1ccc2c(c1)C(=O)N(C[C@@]1(c3cc4nc(Nc5cncc(F)c5)ccc4o3)NC(=O)NC1=O)C2 [Compound 1731] | 
50 | 0.08 nM |  |  | 140 nM | COc1ccc2c(c1F)C(=O)N(C[C@@]1(c3cc4nc(C5CCNCC5)c(F)cc4o3)NC(=O)NC1=O)C2 [Compound 1323] | 
51 | 0.095 nM |  | 2860 nM |  | COc1ccc2c(c1)C(=O)N(C[C@@]1(c3cc4cc(C5(C)CNC(=O)N5)cc(C)c4o3)NC(=O)NC1=O)C2 (some centres unmarked) [Compound 2212] | 
52 | 0.72 nM | 657 nM |  |  | COCCNC(=O)c1cnc2cc([C@]3(CN4Cc5ccc(OC)cc5C4=O)NC(=O)NC3=O)oc2c1 [Compound 2467] | 
53 | 0.83 nM |  | 1100 nM |  | COc1ccc2c(c1)C(=O)N(C[C@@]1(c3cc4cc(C(=O)NCCN(C)CCNS(C)(=O)=O)c(F)cc4o3)NC(=O)NC1=O)C2 [Compound 1281] | 
54 | 0.564 nM |  | 677 nM |  | COc1ccc2c(c1)C(=O)N(C[C@@]1(c3cc4cc(N5C(=O)CNC5=O)ccc4o3)NC(=O)NC1=O)C2 [Compound 2225] | 
55 | 0.568 nM | 1420 nM |  |  | COc1ccc2c(c1)C(=O)N(C[C@@]1(c3cc4c(C(F)(F)F)nc(N)nc4o3)NC(=O)NC1=O)C2 [Compound 2305] | 

Source: patent US8569336B2, “Compounds for the treatment of inflammatory disorders” (priority 2008, dated 2013)
